{"source": "paper doi:10.1101/2021.04.08.439011v1", "about": "(biorxiv, 2021)", "key": {"ABL1(Y253F)": {"target": "ABL1(Y253F) (Homo sapiens, UniProt P00519, Y253F)", "details": "phosphorylated; 1 µM; binder"}, "BRSK1": {"target": "BRSK1 (Homo sapiens, UniProt Q8TDC3)", "sequence (Q8TDC3 whole entry)": "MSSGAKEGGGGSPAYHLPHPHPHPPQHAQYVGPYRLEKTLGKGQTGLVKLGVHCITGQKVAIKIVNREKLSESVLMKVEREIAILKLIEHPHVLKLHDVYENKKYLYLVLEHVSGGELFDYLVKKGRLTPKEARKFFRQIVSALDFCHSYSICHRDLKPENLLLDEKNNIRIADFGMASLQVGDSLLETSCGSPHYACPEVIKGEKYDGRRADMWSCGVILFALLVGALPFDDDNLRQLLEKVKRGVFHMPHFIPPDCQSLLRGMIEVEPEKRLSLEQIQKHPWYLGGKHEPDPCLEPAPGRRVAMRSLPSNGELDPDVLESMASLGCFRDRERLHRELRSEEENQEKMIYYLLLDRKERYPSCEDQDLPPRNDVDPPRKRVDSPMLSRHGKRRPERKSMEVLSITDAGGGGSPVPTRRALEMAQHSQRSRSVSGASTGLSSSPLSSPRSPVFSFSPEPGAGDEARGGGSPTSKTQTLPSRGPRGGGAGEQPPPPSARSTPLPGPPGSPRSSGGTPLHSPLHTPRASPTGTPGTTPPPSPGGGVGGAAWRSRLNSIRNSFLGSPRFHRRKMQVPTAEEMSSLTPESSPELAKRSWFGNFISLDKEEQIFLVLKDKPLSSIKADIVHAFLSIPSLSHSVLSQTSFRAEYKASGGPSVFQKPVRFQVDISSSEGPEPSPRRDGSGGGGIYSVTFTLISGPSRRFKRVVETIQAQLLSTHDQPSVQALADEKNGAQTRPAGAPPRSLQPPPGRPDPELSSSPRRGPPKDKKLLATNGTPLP", "details": "1 µM; binder"}, "CAMK1D": {"target": "CAMK1D (Homo sapiens, UniProt Q8IU85)", "details": "1 µM; binder"}, "CAMK2G": {"target": "CAMK2G (Homo sapiens, UniProt Q13555)", "details": "1 µM; binder"}, "CAMK4": {"target": "CAMK4 (Homo sapiens, UniProt Q16566)", "sequence (Q16566 whole entry)": "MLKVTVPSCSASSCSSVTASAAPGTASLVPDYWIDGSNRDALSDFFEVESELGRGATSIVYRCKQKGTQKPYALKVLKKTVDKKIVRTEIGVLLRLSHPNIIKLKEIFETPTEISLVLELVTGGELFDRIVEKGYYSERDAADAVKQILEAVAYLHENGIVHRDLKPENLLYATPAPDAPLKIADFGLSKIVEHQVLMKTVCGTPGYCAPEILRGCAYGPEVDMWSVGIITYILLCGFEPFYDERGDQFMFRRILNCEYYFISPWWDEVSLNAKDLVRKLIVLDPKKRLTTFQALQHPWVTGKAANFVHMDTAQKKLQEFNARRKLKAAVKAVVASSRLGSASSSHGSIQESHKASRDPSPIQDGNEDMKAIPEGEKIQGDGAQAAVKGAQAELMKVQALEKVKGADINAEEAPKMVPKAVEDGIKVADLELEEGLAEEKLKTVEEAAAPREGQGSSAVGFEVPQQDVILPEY", "details": "1 µM; binder"}, "CAMKK1": {"target": "CAMKK1 (Homo sapiens, UniProt Q8N5S9)", "details": "1 µM; binder"}, "CDC2L2": {"target": "CDC2L2 (Homo sapiens, UniProt Q9UQ88)", "details": "1 µM; binder"}, "CLK3": {"target": "CLK3 (Homo sapiens, UniProt P49761)", "details": "1 µM; binder"}, "CLK4": {"target": "CLK4 (Homo sapiens, UniProt Q9HAZ1)", "details": "1 µM; binder"}, "EGFR(E746-A750del)": {"target": "EGFR(E746-A750del) (Homo sapiens, UniProt P00533, DEL746-750)", "details": "1 µM; binder"}, "ERK2": {"target": "ERK2 (Homo sapiens, UniProt P28482)", "details": "1 µM; binder"}, "FGFR4": {"target": "FGFR4 (Homo sapiens, UniProt P22455)", "details": "1 µM; binder"}, "FLT3(K663Q)": {"target": "FLT3(K663Q) (Homo sapiens, UniProt P36888, K663Q)", "details": "1 µM; binder"}, "GCN2(Kin.Dom.2,S808G)": {"target": "GCN2(Kin.Dom.2,S808G) (Homo sapiens, UniProt Q9P2K8, S808G)", "details": "1 µM; binder"}, "KIT(V559D,T670I)": {"target": "KIT(V559D,T670I) (Homo sapiens, UniProt P10721, T670I/V559D)", "details": "1 µM; binder"}, "LIMK2": {"target": "LIMK2 (Homo sapiens, UniProt P53671)", "details": "1 µM; binder"}, "MARK3": {"target": "MARK3 (Homo sapiens, UniProt P27448)", "sequence (P27448 whole entry)": "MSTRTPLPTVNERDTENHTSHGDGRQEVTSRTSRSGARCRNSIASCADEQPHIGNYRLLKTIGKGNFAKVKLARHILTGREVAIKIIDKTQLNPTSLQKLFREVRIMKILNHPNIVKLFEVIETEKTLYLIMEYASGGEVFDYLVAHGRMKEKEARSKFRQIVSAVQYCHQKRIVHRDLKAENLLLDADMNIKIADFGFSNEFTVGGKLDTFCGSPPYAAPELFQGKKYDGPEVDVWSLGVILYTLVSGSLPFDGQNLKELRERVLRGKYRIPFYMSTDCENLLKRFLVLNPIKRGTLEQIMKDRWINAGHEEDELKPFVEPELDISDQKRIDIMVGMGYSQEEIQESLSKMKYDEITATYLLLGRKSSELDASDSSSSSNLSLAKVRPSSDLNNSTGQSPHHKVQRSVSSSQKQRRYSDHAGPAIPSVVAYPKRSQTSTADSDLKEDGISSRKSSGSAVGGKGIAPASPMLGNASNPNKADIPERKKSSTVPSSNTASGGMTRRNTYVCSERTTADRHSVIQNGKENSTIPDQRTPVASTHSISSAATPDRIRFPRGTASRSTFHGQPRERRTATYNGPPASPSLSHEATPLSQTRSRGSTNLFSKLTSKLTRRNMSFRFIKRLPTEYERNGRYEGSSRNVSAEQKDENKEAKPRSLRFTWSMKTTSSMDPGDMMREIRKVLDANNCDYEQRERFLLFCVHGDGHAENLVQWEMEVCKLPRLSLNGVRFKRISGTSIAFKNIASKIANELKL", "details": "1 µM; binder"}, "MARK4": {"target": "MARK4 (Homo sapiens, UniProt Q96L34)", "sequence (Q96L34 whole entry)": "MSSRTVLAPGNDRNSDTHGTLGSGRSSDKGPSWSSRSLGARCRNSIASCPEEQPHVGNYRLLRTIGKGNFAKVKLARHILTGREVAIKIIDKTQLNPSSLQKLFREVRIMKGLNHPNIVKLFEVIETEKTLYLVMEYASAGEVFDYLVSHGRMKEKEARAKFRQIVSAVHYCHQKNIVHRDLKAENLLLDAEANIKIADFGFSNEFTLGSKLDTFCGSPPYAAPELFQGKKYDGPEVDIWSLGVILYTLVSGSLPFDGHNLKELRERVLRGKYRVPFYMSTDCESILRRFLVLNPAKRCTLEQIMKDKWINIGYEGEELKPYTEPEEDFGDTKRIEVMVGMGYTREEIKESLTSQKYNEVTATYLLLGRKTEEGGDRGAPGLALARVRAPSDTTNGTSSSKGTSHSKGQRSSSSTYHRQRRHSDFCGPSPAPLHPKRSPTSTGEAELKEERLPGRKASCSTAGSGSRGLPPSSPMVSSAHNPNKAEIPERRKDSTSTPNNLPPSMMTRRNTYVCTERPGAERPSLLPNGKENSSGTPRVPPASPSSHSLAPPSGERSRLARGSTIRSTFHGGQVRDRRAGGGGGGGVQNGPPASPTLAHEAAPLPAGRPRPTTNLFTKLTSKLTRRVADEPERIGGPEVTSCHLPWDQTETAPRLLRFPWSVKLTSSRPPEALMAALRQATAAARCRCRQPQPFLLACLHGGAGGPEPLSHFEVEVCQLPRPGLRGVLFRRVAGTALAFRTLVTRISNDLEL", "details": "1 µM; binder"}, "MUSK": {"target": "MUSK (Homo sapiens, UniProt O15146)", "sequence (O15146 whole entry)": "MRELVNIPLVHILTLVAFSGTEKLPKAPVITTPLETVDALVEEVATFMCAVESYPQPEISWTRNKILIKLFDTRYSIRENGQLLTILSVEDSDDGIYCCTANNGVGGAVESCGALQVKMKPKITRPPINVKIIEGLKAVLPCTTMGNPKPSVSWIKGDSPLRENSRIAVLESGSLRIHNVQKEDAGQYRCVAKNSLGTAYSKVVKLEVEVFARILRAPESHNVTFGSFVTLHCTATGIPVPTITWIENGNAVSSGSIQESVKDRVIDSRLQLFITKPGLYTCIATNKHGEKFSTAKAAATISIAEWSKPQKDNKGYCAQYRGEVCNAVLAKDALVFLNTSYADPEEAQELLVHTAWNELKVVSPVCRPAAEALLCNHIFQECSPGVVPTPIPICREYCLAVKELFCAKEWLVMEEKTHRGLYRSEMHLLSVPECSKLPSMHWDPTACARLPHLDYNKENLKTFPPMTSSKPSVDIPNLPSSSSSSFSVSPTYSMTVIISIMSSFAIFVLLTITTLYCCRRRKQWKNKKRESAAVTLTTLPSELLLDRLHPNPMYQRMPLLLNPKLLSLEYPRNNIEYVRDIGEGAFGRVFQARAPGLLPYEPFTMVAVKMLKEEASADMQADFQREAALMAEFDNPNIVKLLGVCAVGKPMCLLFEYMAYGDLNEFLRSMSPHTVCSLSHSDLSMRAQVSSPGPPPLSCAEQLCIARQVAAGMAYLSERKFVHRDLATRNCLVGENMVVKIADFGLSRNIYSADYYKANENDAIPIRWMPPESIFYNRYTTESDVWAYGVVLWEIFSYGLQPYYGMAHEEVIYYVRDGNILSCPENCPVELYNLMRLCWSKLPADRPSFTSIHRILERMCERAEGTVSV", "details": "1 µM; binder"}, "MYLK2": {"target": "MYLK2 (Homo sapiens, UniProt Q9H1R3)", "details": "1 µM; binder"}, "NLK": {"target": "NLK (Homo sapiens, UniProt Q9UBE8)", "details": "1 µM; binder"}, "PAK1": {"target": "PAK1 (Homo sapiens, UniProt Q13153)", "details": "1 µM; binder"}, "PHKG1": {"target": "PHKG1 (Homo sapiens, UniProt Q16816)", "details": "1 µM; binder"}, "PIK3CA": {"target": "PIK3CA (Homo sapiens, UniProt P42336)", "details": "1 µM; binder"}, "PRKD1": {"target": "PRKD1 (Homo sapiens, UniProt Q15139)", "sequence (Q15139 whole entry)": "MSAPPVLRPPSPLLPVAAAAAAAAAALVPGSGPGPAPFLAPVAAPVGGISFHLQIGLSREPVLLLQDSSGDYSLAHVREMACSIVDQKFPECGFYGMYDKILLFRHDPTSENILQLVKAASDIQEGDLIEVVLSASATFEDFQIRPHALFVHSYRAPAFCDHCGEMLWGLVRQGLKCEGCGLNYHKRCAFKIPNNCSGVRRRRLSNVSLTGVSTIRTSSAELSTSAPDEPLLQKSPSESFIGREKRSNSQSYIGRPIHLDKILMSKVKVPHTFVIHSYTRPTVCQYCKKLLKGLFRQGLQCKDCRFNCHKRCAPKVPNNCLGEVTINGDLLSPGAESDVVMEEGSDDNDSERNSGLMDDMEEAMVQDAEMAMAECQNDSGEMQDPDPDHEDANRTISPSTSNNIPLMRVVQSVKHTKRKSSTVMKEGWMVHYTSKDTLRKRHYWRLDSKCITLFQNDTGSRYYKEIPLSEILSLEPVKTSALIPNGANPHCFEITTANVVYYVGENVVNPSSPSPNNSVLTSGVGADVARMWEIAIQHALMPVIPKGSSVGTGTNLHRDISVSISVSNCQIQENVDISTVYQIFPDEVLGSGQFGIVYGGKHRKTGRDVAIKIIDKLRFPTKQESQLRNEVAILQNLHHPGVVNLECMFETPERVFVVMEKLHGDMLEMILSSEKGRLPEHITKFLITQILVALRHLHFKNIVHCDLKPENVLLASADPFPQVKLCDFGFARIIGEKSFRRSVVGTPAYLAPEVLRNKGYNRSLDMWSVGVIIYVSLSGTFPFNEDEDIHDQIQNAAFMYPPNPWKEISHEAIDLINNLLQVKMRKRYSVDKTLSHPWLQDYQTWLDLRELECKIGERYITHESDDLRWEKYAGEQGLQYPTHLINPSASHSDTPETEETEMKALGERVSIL", "details": "1 µM; binder"}, "STK36": {"target": "STK36 (Homo sapiens, UniProt Q9NRP7)", "details": "1 µM; binder"}, "STK39": {"target": "STK39 (Homo sapiens, UniProt Q9UEW8)", "details": "1 µM; binder"}, "TGFBR2": {"target": "TGFBR2 (Homo sapiens, UniProt P37173)", "details": "1 µM; binder"}, "TLK1": {"target": "TLK1 (Homo sapiens, UniProt Q9UKI8)", "details": "1 µM; binder"}, "YANK3": {"target": "YANK3 (Homo sapiens, UniProt Q86UX6)", "sequence (Q86UX6 whole entry)": "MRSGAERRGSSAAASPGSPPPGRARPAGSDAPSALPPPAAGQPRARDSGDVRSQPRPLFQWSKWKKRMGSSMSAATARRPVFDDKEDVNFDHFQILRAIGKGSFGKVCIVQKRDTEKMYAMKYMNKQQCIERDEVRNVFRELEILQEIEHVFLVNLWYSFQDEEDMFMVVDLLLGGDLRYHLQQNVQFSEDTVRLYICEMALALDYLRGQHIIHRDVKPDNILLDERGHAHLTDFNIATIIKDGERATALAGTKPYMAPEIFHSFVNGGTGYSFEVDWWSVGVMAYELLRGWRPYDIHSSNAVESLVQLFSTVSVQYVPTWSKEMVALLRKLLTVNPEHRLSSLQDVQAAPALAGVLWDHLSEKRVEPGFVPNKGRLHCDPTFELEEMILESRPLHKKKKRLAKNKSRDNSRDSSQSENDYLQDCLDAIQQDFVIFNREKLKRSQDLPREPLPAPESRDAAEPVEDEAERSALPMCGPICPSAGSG", "details": "1 µM; binder"}}, "data": [{"smiles": "CNc1ncc2cc(-c3ccc(-c4cccc(C)n4)cc3Cl)c(=O)n(C[C@H]3OC[C@H](N)CO3)c2n1", "note": "[compound 6, G-5555]", "values": [{"measurement": "Percent Control", "setting": "ABL1(Y253F)", "result": 100, "unit": "%"}, {"measurement": "Percent Control", "setting": "BRSK1", "result": 100, "unit": "%"}, {"measurement": "Percent Control", "setting": "CAMK1D", "result": 2.5, "unit": "%"}, {"measurement": "Percent Control", "setting": "CAMK2G", "result": 100, "unit": "%"}, {"measurement": "Percent Control", "setting": "CAMK4", "result": 96, "unit": "%"}, {"measurement": "Percent Control", "setting": "CAMKK1", "result": 100, "unit": "%"}, {"measurement": "Percent Control", "setting": "CDC2L2", "result": 100, "unit": "%"}, {"measurement": "Percent Control", "setting": "CLK3", "result": 100, "unit": "%"}, {"measurement": "Percent Control", "setting": "CLK4", "result": 100, "unit": "%"}, {"measurement": "Percent Control", "setting": "EGFR(E746-A750del)", "result": 100, "unit": "%"}, {"measurement": "Percent Control", "setting": "ERK2", "result": 86, "unit": "%"}, {"measurement": "Percent Control", "setting": "FGFR4", "result": 100, "unit": "%"}, {"measurement": "Percent Control", "setting": "FLT3(K663Q)", "result": 100, "unit": "%"}, {"measurement": "Percent Control", "setting": "GCN2(Kin.Dom.2,S808G)", "result": 63, "unit": "%"}, {"measurement": "Percent Control", "setting": "KIT(V559D,T670I)", "result": 100, "unit": "%"}, {"measurement": "Percent Control", "setting": "LIMK2", "result": 100, "unit": "%"}, {"measurement": "Percent Control", "setting": "MARK3", "result": 18, "unit": "%"}, {"measurement": "Percent Control", "setting": "MARK4", "result": 100, "unit": "%"}, {"measurement": "Percent Control", "setting": "MUSK", "result": 100, "unit": "%"}, {"measurement": "Percent Control", "setting": "MYLK2", "result": 81, "unit": "%"}, {"measurement": "Percent Control", "setting": "NLK", "result": 17, "unit": "%"}, {"measurement": "Percent Control", "setting": "PAK1", "result": 4.5, "unit": "%"}, {"measurement": "Percent Control", "setting": "PHKG1", "result": 100, "unit": "%"}, {"measurement": "Percent Control", "setting": "PIK3CA", "result": 100, "unit": "%"}, {"measurement": "Percent Control", "setting": "PRKD1", "result": 17, "unit": "%"}, {"measurement": "Percent Control", "setting": "STK36", "result": 2.9, "unit": "%"}, {"measurement": "Percent Control", "setting": "STK39", "result": 100, "unit": "%"}, {"measurement": "Percent Control", "setting": "TGFBR2", "result": 100, "unit": "%"}, {"measurement": "Percent Control", "setting": "TLK1", "result": 100, "unit": "%"}, {"measurement": "Percent Control", "setting": "YANK3", "result": 79, "unit": "%"}]}]}
